Measurements taken from patent US8658604B2, “Template-fixed beta-hairpin peptidomimetics with protease inhibitory activity” (Polyphor Ltd, priority 2005, dated 2014).
Where a SMILES comes first, the peptide text is derived from it.

How the values were obtained:
[1] = molecular target: Urokinase from human urine (Homo sapiens, UniProt P00749); test: Enzymatic assay, urokinase
[2] = molecular target: Thrombin, from Human Plasma (Homo sapiens, UniProt P00734); test: Enzymatic assay, thrombin
[3] = molecular target: T1, CathepsinG, from human neutrophils (Homo sapiens, UniProt P08311); test: Enzymatic assay, cathepsin G; details: for IC50: Cathepsin G IC50
T1 sequence (P08311 21-244): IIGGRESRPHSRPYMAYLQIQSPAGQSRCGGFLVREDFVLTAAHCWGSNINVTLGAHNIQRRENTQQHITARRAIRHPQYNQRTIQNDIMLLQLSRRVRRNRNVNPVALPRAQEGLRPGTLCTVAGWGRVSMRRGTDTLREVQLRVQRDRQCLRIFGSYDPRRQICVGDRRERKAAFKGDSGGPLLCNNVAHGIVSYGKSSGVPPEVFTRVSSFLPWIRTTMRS

[4] = tested on: Tryptase, from human lung; test: Enzymatic assay, tryptase; details: at 100 μM
[5] = molecular target: Chymotrypsin, from human pancreas (Homo sapiens, UniProt P17538); test: Enzymatic assay, chymotrypsin; details: at 100 μM
Chain of Chymotrypsin, from human pancreas (P17538 19-263): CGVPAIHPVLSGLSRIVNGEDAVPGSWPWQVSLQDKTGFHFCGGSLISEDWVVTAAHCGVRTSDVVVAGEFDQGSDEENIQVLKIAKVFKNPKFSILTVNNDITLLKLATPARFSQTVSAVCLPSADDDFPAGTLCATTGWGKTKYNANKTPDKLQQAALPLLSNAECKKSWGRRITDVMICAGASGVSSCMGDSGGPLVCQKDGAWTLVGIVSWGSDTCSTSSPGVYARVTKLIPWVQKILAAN

[6] = molecular target: Coagulation Factor Xa, from uman plasma (Homo sapiens, UniProt P00742); test: Enzymatic assay, coagulation factor Xa
Chain of Coagulation Factor Xa, from uman plasma (P00742 235-488 limits assumed): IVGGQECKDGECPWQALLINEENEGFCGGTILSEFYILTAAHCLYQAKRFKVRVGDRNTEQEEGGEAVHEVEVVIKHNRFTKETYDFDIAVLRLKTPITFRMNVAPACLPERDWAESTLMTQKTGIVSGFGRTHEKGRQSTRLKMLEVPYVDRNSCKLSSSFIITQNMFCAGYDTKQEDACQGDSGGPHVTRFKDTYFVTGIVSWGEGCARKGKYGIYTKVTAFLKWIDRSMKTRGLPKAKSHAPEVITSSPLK
Chain of Coagulation Factor Xa, from uman plasma (P00742 41-179 limits assumed): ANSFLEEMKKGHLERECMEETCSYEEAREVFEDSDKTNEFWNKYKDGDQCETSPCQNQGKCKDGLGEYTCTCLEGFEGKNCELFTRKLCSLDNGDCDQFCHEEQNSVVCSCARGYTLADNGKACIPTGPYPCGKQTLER

[7] = molecular target: Trypsin, from human pancreas (Homo sapiens, UniProt P07477); test: Enzymatic assay, trypsin; details: at 100 μM
[8] = molecular target: T2, Elastase from human neutrophils (Homo sapiens, UniProt P08246); test: Enzymatic assay, elastase; details: Elastase IC50
T2 sequence (P08246 30-267): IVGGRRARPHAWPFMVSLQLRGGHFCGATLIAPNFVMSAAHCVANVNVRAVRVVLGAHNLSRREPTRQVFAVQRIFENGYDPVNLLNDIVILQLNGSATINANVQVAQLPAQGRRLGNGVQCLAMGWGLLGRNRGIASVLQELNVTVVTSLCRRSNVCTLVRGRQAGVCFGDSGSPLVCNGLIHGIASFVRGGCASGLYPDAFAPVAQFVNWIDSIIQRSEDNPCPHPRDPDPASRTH

Chymase, from human skin = molecular target: T3, Chymase, from human skin (Homo sapiens, UniProt P23946); test: Enzymatic assay, chymase
T3 sequence (P23946 22-247): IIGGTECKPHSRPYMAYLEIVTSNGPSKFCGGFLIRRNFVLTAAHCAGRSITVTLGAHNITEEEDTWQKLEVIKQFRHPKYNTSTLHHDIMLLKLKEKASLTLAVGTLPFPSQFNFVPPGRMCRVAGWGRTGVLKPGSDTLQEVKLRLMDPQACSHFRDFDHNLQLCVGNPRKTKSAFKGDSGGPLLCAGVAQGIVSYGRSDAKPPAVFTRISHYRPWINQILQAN

Structure (SMILES)	Urokinase at 100 μM % [1]	Thrombin at 100 μM % [2]	IC50 [3]	Tryptase at 100 μM % [4]	Chymotrypsin at 100 μM % [5]	FXa at 100 μM % [6]	Trypsin at 100 μM % [7]	IC50 [8]	Chymase at 100 μM % (Chymase, from human skin)	Cathepsin G at 100 μM % ([3]; at 100 μM)	Tryptase At 100 μM % [4]	Cathepsin G at 100 μM % ([3]; at 100 μM (stated in cell instead of IC50))
CC[C@H](C)[C@@H]1NC(=O)[C@@H]2CCCN2C(=O)[C@@H]2CCCN2C(=O)[C@H](CC(=O)O)NC(=O)[C@H](CO)NC(=O)[C@H](CCCCN)NC(=O)[C@H]([C@@H](C)O)NC(=O)[C@@H]2CSSC[C@H](NC1=O)C(=O)N[C@@H](Cc1ccc(O)cc1)C(=O)N1CCC[C@@H]1C(=O)N1CCC[C@H]1C(=O)N[C@@H](Cc1ccc(O)cc1)C(=O)N2 [Ex. 26] (HELM PEPTIDE1{Y.C.T.K.S.D.P.P.I.C.Y.[dP].P}$PEPTIDE1,PEPTIDE1,2:R3-10:R3|PEPTIDE1,PEPTIDE1,1:R1-13:R2$$$V2.0)	3.1%	3%	49 nM	66.4%	2.2%	6%	84%	> 100000 nM	0%	–	–	–
CCCCCCCC[C@@H]1NC(=O)[C@@H]2CCCN2C(=O)[C@H]2CCCN2C(=O)[C@H](CCC(N)=O)NC(=O)[C@@H]2CSSC[C@H](NC1=O)C(=O)N[C@@H]([C@@H](C)O)C(=O)N[C@@H](C)C(=O)N[C@@H](CO)C(=O)N[C@@H](CC1CCCCC1)C(=O)N1CCC[C@H]1C(=O)N1CC(NC(=O)c3ccccc3)C[C@H]1C(=O)N[C@@H](CCC(N)=O)C(=O)N2 (stereo partly shown) [Ex. 160] (HELM PEPTIDE1{[CCCCCCCC[C@H](N[*:1])C(=O)[*:2]].C.T.A.S.[Cha].P.[O=C(NC1C[C@@H](C(=O)[*:2])N([*:1])C1)c1ccccc1].Q.C.Q.[dP].P}$PEPTIDE1,PEPTIDE1,2:R3-10:R3|PEPTIDE1,PEPTIDE1,1:R1-13:R2$$$V2.0)	14%	23%	–	–	94%	1%	3%	–	2%	55 at 100%	30%	–
CCCCCCCC[C@@H]1NC(=O)[C@H](CO)NC(=O)[C@H](C)NC(=O)[C@H]([C@@H](C)O)NC(=O)[C@@H]2CSSC[C@H](NC(=O)[C@H](CCC(N)=O)NC(=O)[C@@H]3CCCN3C(=O)[C@@H]3CCCN3C1=O)C(=O)N[C@@H](CCC(N)=O)C(=O)N1CCC[C@@H]1C(=O)N1CCC[C@H]1C(=O)N[C@@H](CCc1ccccc1)C(=O)N2 [Ex. 153] (HELM PEPTIDE1{[O=C([C@H](CCc1ccccc1)N[*:1])[*:2]].C.T.A.S.[CCCCCCCC[C@H](N[*:1])C(=O)[*:2]].P.P.Q.C.Q.[dP].P}$PEPTIDE1,PEPTIDE1,2:R3-10:R3|PEPTIDE1,PEPTIDE1,1:R1-13:R2$$$V2.0)	16%	16%	–	–	84%	11%	8%	8.5 nM	0%	56 at 100%	9%	–
CCCC[C@@H]1NC(=O)[C@@H]2CCCN2C(=O)[C@H]2CCCN2C(=O)[C@H](Cc2ccc(O)cc2)NC(=O)[C@H](CCCCN)NC(=O)[C@H](CCC(N)=O)NC(=O)[C@@H]2CCCN2C(=O)[C@@H]2CCCN2C(=O)[C@H]([C@@H](C)CC)NC(=O)[C@H](CO)NC(=O)[C@H](C)NC(=O)[C@H]([C@@H](C)O)NC(=O)[C@H](CCC(=O)O)NC1=O [Ex. 104] (HELM PEPTIDE1{[Nle].E.T.A.S.I.P.P.Q.K.Y.[dP].P}$PEPTIDE1,PEPTIDE1,1:R1-13:R2$$$V2.0)	0%	7.7%	–	0%	3.1 at 100 μM %	6.2%	0%	34 nM	0%	–	–	53.5 at 100%
CCCCCCCC[C@@H]1NC(=O)[C@H](CCC(N)=O)NC(=O)[C@H]2CCCN2C(=O)[C@H](Cc2ccc(O)cc2)NC(=O)[C@@H]2CSSC[C@H](NC1=O)C(=O)N[C@@H]([C@@H](C)O)C(=O)N[C@@H](C)C(=O)N[C@@H](CO)C(=O)N[C@@H]([C@@H](C)CC)C(=O)N1CCC[C@H]1C(=O)N1CCC[C@H]1C(=O)N[C@@H](CCC(N)=O)C(=O)N2 [compound 177] (HELM PEPTIDE1{[CCCCCCCC[C@H](N[*:1])C(=O)[*:2]].C.T.A.S.I.P.P.Q.C.Y.[dP].Q}$PEPTIDE1,PEPTIDE1,2:R3-10:R3|PEPTIDE1,PEPTIDE1,1:R1-13:R2$$$V2.0)	12%	17%	–	–	86%	7%	5%	7 nM	3%	54 at 100%	15%	–
CCCCCCCC[C@@H]1NC(=O)[C@@H]2CCCN2C(=O)[C@H]2CCCN2C(=O)[C@H](Cc2ccc(O)cc2)NC(=O)[C@H]([C@@H](C)O)NC(=O)[C@H](CCC(N)=O)NC(=O)[C@@H]2CCCN2C(=O)[C@@H]2CCCN2C(=O)[C@H]([C@@H](C)CC)NC(=O)[C@H](CO)NC(=O)[C@H](C)NC(=O)[C@H]([C@@H](C)O)NC(=O)[C@H](CCC(N)=O)NC1=O [Ex. 154] (HELM PEPTIDE1{[CCCCCCCC[C@H](N[*:1])C(=O)[*:2]].Q.T.A.S.I.P.P.Q.T.Y.[dP].P}$PEPTIDE1,PEPTIDE1,1:R1-13:R2$$$V2.0)	1%	7%	–	–	4%	0%	0%	8.3 nM	0%	27 at 100%	15%	–
CCCC[C@@H]1NC(=O)[C@H](CCC(N)=O)NC(=O)[C@@H](CCC(N)=O)NC(=O)[C@H](CCC(N)=O)NC(=O)[C@@H]2CSSC[C@H](NC1=O)C(=O)N[C@@H]([C@@H](C)O)C(=O)N[C@@H](C)C(=O)N[C@@H](CO)C(=O)N[C@@H](CC1CCCCC1)C(=O)N1CCC[C@H]1C(=O)N1CC(NC(=O)c3ccccc3)C[C@H]1C(=O)N[C@@H](CCC(N)=O)C(=O)N2 (stereo partly shown) [compound 176] (HELM PEPTIDE1{[Nle].C.T.A.S.[Cha].P.[O=C(NC1C[C@@H](C(=O)[*:2])N([*:1])C1)c1ccccc1].Q.C.Q.[dQ].Q}$PEPTIDE1,PEPTIDE1,2:R3-10:R3|PEPTIDE1,PEPTIDE1,1:R1-13:R2$$$V2.0)	8%	15%	–	–	55%	1%	7%	–	2%	69 at 100%	17%	–
CC[C@H](C)[C@@H]1NC(=O)[C@@H]2CCCN2C(=O)[C@@H]2CCCN2C(=O)[C@H](CC(=O)O)NC(=O)[C@H](CO)NC(=O)[C@H](CCCCN)NC(=O)[C@H]([C@@H](C)O)NC(=O)[C@@H]2CSSC[C@H](NC1=O)C(=O)N[C@@H](CC(N)=O)C(=O)N1CCC[C@@H]1C(=O)N1CCC[C@H]1C(=O)N[C@@H](Cc1ccc(N)cc1)C(=O)N2 [Ex. 31] (HELM PEPTIDE1{[Nc1ccc(C[C@H](N[*:1])C(=O)[*:2])cc1].C.T.K.S.D.P.P.I.C.N.[dP].P}$PEPTIDE1,PEPTIDE1,2:R3-10:R3|PEPTIDE1,PEPTIDE1,1:R1-13:R2$$$V2.0)	15%	10%	34 nM	76%	15%	8%	98%	> 100000 nM	12%	–	–	–
